What all share (format): cell-based
The test system of assay [1] is SDOV3 cells (an ovarian cancer cell line). Kind of assay: Detection of ovarian cancer cells: absorption and intracellular deacylation to a fluorescent structure, fluorescence microscopy. The conditions noted are these: folate-free medium (no FBS), washed with HBSS, 20× immersion objective. As to the method:
Compound 24 and comparative compound A were evaluated for their ability to be absorbed by cancer cells and then, in the case of compound 24, deacylated by intracellular esterases so as to regenerate a fluorescent structure. Specifically, approximately 500,000 SDOV3 cells (an ovarian cancer cell line) were seeded into separate 35 mm culture dishes containing a folate-free growth medium (RPMI+10% FBS). The next day, the medium was replaced with a folate-free medium (no FBS). In one culture dish, the medium was supplemented with 25 micromolar of compound 24; and, in another culture dish, the medium was supplemented with 50 micromolar of comparative compound A. After incubation, the cells were washed with HBSS (Hank's balanced salt solution) to remove unbound compound. The cells were then imaged with a 20× immersion objective on a standard upright fluorescent microscope. […] FIG. 1 illustrates a picture showing the fluorescence generated. Note that only the cancer cells evidenced fluorescence and that the solution remained non-fluorescent. […] This evidences that that composition was not suitable for use in the methods described herein.

The subject of assay [2] is MCF7 cells, a breast cancer cell line that expresses folate binding protein. Put plainly: Labeling of MCF7 cells (correlation between folic acid receptors and fluorescence intensity). To be noted: MCF cells, 10 uM, one hour, folate-free RPMI, no FBS. As to the method: In this experiment, the procedures set forth above were repeated with the exception that SKOV3 cells were replaced with MCF7 cells—a breast cancer cell line that expresses folate binding protein albeit at a level lower than that of the SKOV3 cells. […] However, the fluorescent intensity generated by the MCF7 cells was less than that generated by SKOV3 cells.
Specifically, MCF cells were labeled at 10 uM with compound 24 for one hour in folate-free RPMI, no FBS. Cells were washed and imaged.

Another assay deals with SKOV3 cells. Put plainly: Dose response of fluorescence generated in SKOV3 cells. The conditions noted are these: 1 hour; for Mean intensity: SKOV3 cells, RPMI + 0.25% BSA, image J. How it is done:
This experiment establishes that compound 24 provides a dose response relative to the fluorescence generated. Specifically, SKOV3 cells were incubated with 10 μM, 25 μM, or 50 μM of compound 24 in RPMI supplemented with 0.25% BSA. Cells were incubated for 1 hour then washed with HBSS and imaged as before.
All images were analyzed using exactly the same parameters using the image J software suite. Mean intensity was measured from identical regions with in each image. […] While BSA was used as a supplement, acylated BSA may be more practical.

Assay [3] addresses T1, folate binding protein (folate receptor) on SKOV3 cells (Homo sapiens, UniProt P15328).
T1 construct: endogenous in cells; host or cells: SKOV3 cells
Put plainly: Folate competition: labeling of ovarian cancer cells via the folic acid receptor. To be noted: 10 μM compound alone vs 10 μM + 1 mM folate (100×). As to the method: This example establishes that compound 24 is specific for the folate receptor. Specifically, compound 24 was used in a folate free medium and in a medium using excess folate that competed with compound 24. The rationale is that in the presence of excess folate, compound 24 would have to compete for binding to the folate binding protein and therefore there would be less signal than when compound 24 was the sole source of folate.
To test this hypothesis, SKOV3 cells were incubated with 10 μM of compound 24 or with 10 μM of compound 24+1 mM folate (100×s). Cells were then washed and imaged as before.
All images were analyzed using exactly the same parameters. Mean intensity was measured from identical regions with in each image. […] These images establish that compound 24 binds to cells through the folate binding protein and not by some other route.

T1 sequence (P15328 25-234): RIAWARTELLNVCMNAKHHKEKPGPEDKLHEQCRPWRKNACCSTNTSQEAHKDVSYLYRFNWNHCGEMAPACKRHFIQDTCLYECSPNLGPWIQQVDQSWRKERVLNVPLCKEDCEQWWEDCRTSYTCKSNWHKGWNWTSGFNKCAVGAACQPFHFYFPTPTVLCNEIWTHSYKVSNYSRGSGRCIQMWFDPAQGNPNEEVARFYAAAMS

For `Nc1nc2ncc(CNc3ccc(C(=O)NC(CCC(=O)NCCCCCNC(=O)c4cccc(-c5c6ccc(=O)cc-6oc6cc(O)ccc56)c4C(=O)O)C(=O)O)cc3)nc2c(=O)[nH]1` (centres unmarked) [comparative compound A, reference compound], the “fluorescent signal of cancer cells after incubation” value in assay [1] (50 micromolar) is listed as “showed a burst of fluorescence but immediately the fluorescence was bleached”.
In the case of “O,O′-(5-(3-(4-((4-(4-(((2-amino-4-oxo-3,4-dihydropteridin-6-yl)methyl)amino)benzamido)-5-methoxy-5-oxopentanamido)methyl)phenyl)thioureido)-3-oxo-3H-spiro[isobenzofuran-1,9′-xanthene]-3′,6′-diyl) bis)(2-methoxyethyl) Disuccinate [compound 24]”, the “labeling of cells (fluorescence)” value in assay [2] is “labeling is faint”. In addition, the Mean intensity in the assay with SKOV3 cells (10 μM) is 312.8; in the assay on SKOV3 cells (25 μM), 360.4; with SKOV3 cells (50 μM) it was 545.5. Also, in the assay with SKOV3 cells (SKOV3 cells, 10, 25, 50 μM), the “dose response in labeling cells” value is “clear dose response”. The “fluorescent signal of cancer cells after incubation” value in assay [1] (25 micromolar) was “clear, consistent and unambiguous”. Moreover, in assay [3], the “competition by excess folate for labeling ovarian cancer cells” value was “folate competes with compound 24”.
